From PubChem BioAssay (NCI)
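All cell lines were grown in 96-well plates and treated with compound for 48 hours. Abbreviation: GI50, concentration required for 50% inhibition of growth. At the TGI there is no net growth.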

What was measured:
Experiment in all cases: DTP human tumour cell line panel, 48 h
A498 renal = tested on: A498 renal
SN12C renal = tested on: SN12C renal
MDA-MB-231 breast = tested on: MDA-MB-231 breast
HOP-92 NSCLC = tested on: HOP-92 NSCLC
MALME-3M melanoma = tested on: MALME-3M melanoma
CCRF-CEM leukemia = tested on: CCRF-CEM leukemia
RXF 393 renal = tested on: RXF 393 renal
HL-60(TB) leukemia = tested on: HL-60(TB) leukemia
RPMI-8226 leukemia = tested on: RPMI-8226 leukemia
EKVX NSCLC = tested on: EKVX NSCLC
DU-145 prostate = tested on: DU-145 prostate
NCI-H460 lung = tested on: NCI-H460 lung
SW-620 colon = tested on: SW-620 colon
KM12 colon = tested on: KM12 colon
U251 CNS = tested on: U251 CNS
SNB-75 CNS = tested on: SNB-75 CNS
MCF7 breast = tested on: MCF7 breast
A549 NSCLC = tested on: A549 NSCLC
TK-10 renal = tested on: TK-10 renal
NCI-H226 lung = tested on: NCI-H226 lung
PC-3 prostate = tested on: PC-3 prostate
OVCAR-5 ovarian = tested on: OVCAR-5 ovarian
CAKI-1 renal = tested on: CAKI-1 renal
SF-268 CNS = tested on: SF-268 CNS
HOP-62 NSCLC = tested on: HOP-62 NSCLC
SK-MEL-2 melanoma = tested on: SK-MEL-2 melanoma
SK-MEL-5 melanoma = tested on: SK-MEL-5 melanoma

## CCCCCCCCCCCCCCCCOCCCOP(=O)(O)C1CCCN(O)C1=O (stereo not drawn)
A498 renal
  GI50: 1.73 µM
  TGI: 12.4 µM
SN12C renal
  GI50: 1.53 µM
  TGI: 12.8 µM
MDA-MB-231 breast
  GI50: 2.3 µM
  TGI: 16.8 µM
HOP-92 NSCLC
  GI50: 6.08 µM
  TGI: 40 µM
MALME-3M melanoma
  GI50: 2.64 µM
  TGI: 10.8 µM
CCRF-CEM leukemia
  GI50: 0.553 µM
  TGI: 30 µM
RXF 393 renal
  GI50: 1.9 µM
  TGI: 12.2 µM
HL-60(TB) leukemia
  GI50: 1.31 µM
  TGI: 10.3 µM
RPMI-8226 leukemia
  GI50: 0.936 µM
  TGI: 29.4 µM
EKVX NSCLC
  GI50: 3.6 µM
  TGI: 16.3 µM
DU-145 prostate
  GI50: 2.53 µM
  TGI: > 100 µM
NCI-H460 lung
  GI50: 0.375 µM
  TGI: 4.51 µM
SW-620 colon
  GI50: 1.47 µM
  TGI: 22.3 µM
KM12 colon
  GI50: 0.572 µM
  TGI: 11.3 µM
U251 CNS
  GI50: 0.489 µM
  TGI: 15.3 µM
SNB-75 CNS
  GI50: 2.13 µM
  TGI: 15 µM
MCF7 breast
  GI50: 3.39 µM
  TGI: 20 µM
A549 NSCLC
  GI50: 3.56 µM
  TGI: 14.4 µM
TK-10 renal
  GI50: 0.738 µM
  TGI: 23.4 µM
NCI-H226 lung
  GI50: 2.1 µM
  TGI: 14.3 µM
PC-3 prostate
  GI50: 0.468 µM
  TGI: 13.6 µM
OVCAR-5 ovarian
  GI50: 1.63 µM
  TGI: 18.6 µM
CAKI-1 renal
  GI50: 2.09 µM
  TGI: 6.18 µM
SF-268 CNS
  GI50: 1.81 µM
  TGI: 11.7 µM
HOP-62 NSCLC
  GI50: 0.837 µM
  TGI: 18.6 µM
SK-MEL-2 melanoma
  GI50: 5.95 µM
  TGI: 24.6 µM
SK-MEL-5 melanoma
  GI50: 3.74 µM
